Measurements: ChEMBL document CHEMBL1201862, “PubChem BioAssay data set” (2004)
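Values below derive from 48-hour exposures of cells grown in 96-well plates, with endpoints linearly interpolated between the two concentrations bracketing the appropriate inhibition level. The concentration for 50% growth inhibition is given as GI50.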 Active and inactive are the calls of the source. No stated cut-off is given here; in the data, active = GI50 up to about 1.1 µM and inactive = higher.

What was measured:
Assay in all cases: DTP human tumour cell line panel, 48 h
A498 = tested on: A498
LOX IMVI = tested on: LOX IMVI
UO-31 = tested on: UO-31
HCT-116 = tested on: HCT-116
SN12C = tested on: SN12C
PC-3 = tested on: PC-3
KM12 = tested on: KM12
HL-60 = tested on: HL-60
Malme-3M = tested on: Malme-3M
OVCAR-8 = tested on: OVCAR-8
UACC-62 = tested on: UACC-62
SF-268 = tested on: SF-268
UACC-257 = tested on: UACC-257
Hs-578T = tested on: Hs-578T
A549 = tested on: A549
NCI-H460 = tested on: NCI-H460
MDA-MB-231 = tested on: MDA-MB-231
SW-620 = tested on: SW-620
RPMI-8226 = tested on: RPMI-8226
HCC 2998 = tested on: HCC 2998

Row | SMILES | GI50 (A498) | GI50 (LOX IMVI) | GI50 (UO-31) | GI50 (HCT-116) | GI50 (SN12C) | GI50 (PC-3) | GI50 (KM12) | GI50 (HL-60) | GI50 (Malme-3M) | GI50 (OVCAR-8) | GI50 (UACC-62) | GI50 (SF-268) | GI50 (UACC-257) | GI50 (Hs-578T) | GI50 (A549) | GI50 (NCI-H460) | GI50 (MDA-MB-231) | GI50 (SW-620) | GI50 (RPMI-8226) | GI50 (HCC 2998)
1 | O=C(CCc1cccc(O)c1)NCCc1ccc(O)cc1 | > 100 µM (inactive) | > 100 µM (inactive) | > 100 µM (inactive) | > 100 µM (inactive) | > 100 µM (inactive) | > 100 µM (inactive) | > 100 µM (inactive) | > 100 µM (inactive) | > 100 µM (inactive) | > 100 µM (inactive) | > 100 µM (inactive) | > 100 µM (inactive) | > 100 µM (inactive) | > 100 µM (inactive) | > 100 µM (inactive) | > 100 µM (inactive) | > 100 µM (inactive) | – | – | –
2 | C[C@H]1C[C@H]2[C@@H]3C(C)(C)O[C@]4(O)C(=O)[C@]5(O)[C@@H](C)CC[C@H]1[C@]25C(=O)[C@]34C | 35 µM (inactive) | 36.1 µM (inactive) | 51.6 µM (inactive) | 30.7 µM (inactive) | 80.2 µM (inactive) | 44.1 µM (inactive) | 35.6 µM (inactive) | 29.4 µM (inactive) | – | 63.7 µM (inactive) | 43.4 µM (inactive) | 45.7 µM (inactive) | 48.5 µM (inactive) | 37.5 µM (inactive) | 41.6 µM (inactive) | 30.2 µM (inactive) | > 100 µM (inactive) | 79.6 µM (inactive) | 18.1 µM (inactive) | –
3 | Oc1cc(/C=C/c2ccccc2)nc2cc3c(cc12)OCO3 | 4.2 µM (inactive) | – | 6.01 µM (inactive) | 3.19 µM (inactive) | 6.04 µM (inactive) | – | 3.99 µM (inactive) | – | – | 5.53 µM (inactive) | 3.19 µM (inactive) | – | 22.1 µM (inactive) | 3.78 µM (inactive) | 4.95 µM (inactive) | 3.1 µM (inactive) | 2.79 µM (inactive) | 6.37 µM (inactive) | 0.724 µM (active) | 2.9 µM (inactive)
4 | O=C1c2ccccc2-c2nc(-c3cccc([N+](=O)[O-])c3)nnc21 | – | – | 12.3 µM (inactive) | 23.1 µM (inactive) | 21.4 µM (inactive) | 40.2 µM (inactive) | 8 µM (inactive) | 3.07 µM (inactive) | 17.5 µM (inactive) | 11.4 µM (inactive) | 9.12 µM (inactive) | 43.1 µM (inactive) | 3.24 µM (inactive) | 12.4 µM (inactive) | 4.62 µM (inactive) | 3.96 µM (inactive) | 16.6 µM (inactive) | 15.8 µM (inactive) | 2.94 µM (inactive) | –
5 | COC(=O)c1cc(C#Cc2cc(OC)ccc2OC)ccc1OC | – | 32.1 µM (inactive) | 40.1 µM (inactive) | – | – | 40.7 µM (inactive) | 43.9 µM (inactive) | 31.1 µM (inactive) | 44.3 µM (inactive) | 37.1 µM (inactive) | – | 75.7 µM (inactive) | 37.2 µM (inactive) | > 100 µM (inactive) | 34.8 µM (inactive) | 56.8 µM (inactive) | > 100 µM (inactive) | > 100 µM (inactive) | 13.9 µM (inactive) | > 100 µM (inactive)
6 | CCNc1ccc2c(c1)C(=O)N(OS(C)(=O)=O)C2=O | > 100 µM (inactive) | 38.3 µM (inactive) | 62.5 µM (inactive) | 36.5 µM (inactive) | > 100 µM (inactive) | > 100 µM (inactive) | > 100 µM (inactive) | – | 30.3 µM (inactive) | > 100 µM (inactive) | > 100 µM (inactive) | > 100 µM (inactive) | > 100 µM (inactive) | > 100 µM (inactive) | > 100 µM (inactive) | > 100 µM (inactive) | > 100 µM (inactive) | 37.6 µM (inactive) | 31.9 µM (inactive) | > 100 µM (inactive)
7 | CCOC(=O)c1c(SCCN2CCCCC2)n(-c2ccccc2)c(=S)n(-c2ccccc2)c1=O | – | 12.8 µM (inactive) | 18.2 µM (inactive) | 2.18 µM (inactive) | 19.2 µM (inactive) | 14.6 µM (inactive) | 19 µM (inactive) | 3.49 µM (inactive) | 16.4 µM (inactive) | 22.9 µM (inactive) | 25.8 µM (inactive) | 28.6 µM (inactive) | 12.4 µM (inactive) | 26.1 µM (inactive) | > 54 µM (inactive) | 33.9 µM (inactive) | 21.2 µM (inactive) | 3.79 µM (inactive) | 2.74 µM (inactive) | > 38.9 µM (inactive)
8 | CC(C)CC1NC(=O)CCC(NC(=O)C(Cc2ccc(O)cc2)NC(=O)OCc2ccccc2)C(=O)NC(Cc2ccccc2)C(=O)NC(Cc2ccccc2)NC1=O (stereo unspecified) | – | > 100 µM (inactive) | > 100 µM (inactive) | > 100 µM (inactive) | > 100 µM (inactive) | > 100 µM (inactive) | > 100 µM (inactive) | > 100 µM (inactive) | > 100 µM (inactive) | > 100 µM (inactive) | > 100 µM (inactive) | > 100 µM (inactive) | > 100 µM (inactive) | > 100 µM (inactive) | > 100 µM (inactive) | > 100 µM (inactive) | > 100 µM (inactive) | > 100 µM (inactive) | > 100 µM (inactive) | > 100 µM (inactive)
9 | O=C1NC(Cc2c[nH]c3ccccc23)C(=O)N2C(C3CCCCC3)c3[nH]c4ccccc4c3C[C@@H]12 (stereo partly specified) | 15.2 µM (inactive) | 13.3 µM (inactive) | 14.1 µM (inactive) | 10.2 µM (inactive) | 8.26 µM (inactive) | 7.05 µM (inactive) | 11.8 µM (inactive) | 13.4 µM (inactive) | 13.1 µM (inactive) | 14.6 µM (inactive) | 15.3 µM (inactive) | 13.1 µM (inactive) | 12.1 µM (inactive) | 2.18 µM (inactive) | 10.9 µM (inactive) | – | 15.1 µM (inactive) | 15.7 µM (inactive) | 9.02 µM (inactive) | –
10 | COC1OC2COC1(OCc1ccccc1)C1OC(C)(C)OC21 (stereo unspecified) | > 100 µM (inactive) | – | > 100 µM (inactive) | > 100 µM (inactive) | > 100 µM (inactive) | > 100 µM (inactive) | > 100 µM (inactive) | – | > 100 µM (inactive) | > 100 µM (inactive) | > 100 µM (inactive) | > 100 µM (inactive) | > 100 µM (inactive) | > 100 µM (inactive) | > 100 µM (inactive) | > 100 µM (inactive) | > 100 µM (inactive) | > 100 µM (inactive) | > 100 µM (inactive) | > 100 µM (inactive)
11 | Clc1ccc(-c2cn3c(nc4ccccc43)c(/C=C/c3ccco3)n2)cc1 | 29.5 µM (inactive) | 33 µM (inactive) | 48.2 µM (inactive) | 41.8 µM (inactive) | 50 µM (inactive) | – | 29.5 µM (inactive) | 12.5 µM (inactive) | 70.3 µM (inactive) | – | 41.8 µM (inactive) | 27.7 µM (inactive) | 50.6 µM (inactive) | 14.8 µM (inactive) | 46.6 µM (inactive) | 23.5 µM (inactive) | 28.4 µM (inactive) | 36.8 µM (inactive) | 16.1 µM (inactive) | 22.2 µM (inactive)
12 | CCCCCCCCCCCCCOCCOCCOCCCCC(O)CCCCCCCCCC1=C[C@H](C)OC1=O (stereo partly specified) | – | 4.31 µM (inactive) | 16 µM (inactive) | 0.766 µM (active) | 21.4 µM (inactive) | 13.8 µM (inactive) | 19.1 µM (inactive) | 0.356 µM (active) | – | 18.7 µM (inactive) | 20 µM (inactive) | 18.1 µM (inactive) | 13.2 µM (inactive) | 14.9 µM (inactive) | 7.55 µM (inactive) | 17.5 µM (inactive) | 22.4 µM (inactive) | 16.4 µM (inactive) | 1.96 µM (inactive) | 17 µM (inactive)
13 | COC(=S)OC1CC(n2cnc3c(=O)[nH]cnc32)OC1CO[Si](C)(C)C(C)(C)C (stereo unspecified) | > 100 µM (inactive) | > 100 µM (inactive) | – | > 100 µM (inactive) | > 100 µM (inactive) | > 100 µM (inactive) | > 100 µM (inactive) | > 100 µM (inactive) | > 100 µM (inactive) | > 100 µM (inactive) | > 100 µM (inactive) | > 100 µM (inactive) | > 100 µM (inactive) | > 100 µM (inactive) | > 100 µM (inactive) | > 100 µM (inactive) | > 100 µM (inactive) | > 100 µM (inactive) | > 100 µM (inactive) | –
14 | O=[N+]([O-])c1ccc(CSC2=C(c3ccc(Cl)cc3)S/C(=C3\SC(SCc4ccc([N+](=O)[O-])cc4)=C(c4ccc(Cl)cc4)S3)S2)cc1 | > 100 µM (inactive) | > 100 µM (inactive) | – | > 100 µM (inactive) | > 100 µM (inactive) | > 100 µM (inactive) | > 100 µM (inactive) | – | > 100 µM (inactive) | > 100 µM (inactive) | > 100 µM (inactive) | > 100 µM (inactive) | > 100 µM (inactive) | > 100 µM (inactive) | > 100 µM (inactive) | > 100 µM (inactive) | > 100 µM (inactive) | > 100 µM (inactive) | – | > 100 µM (inactive)
15 | CCCCn1c2c(n(CCCC)c1=[Se])-c1c(n(CCCC)c(=[Se])n1CCCC)S[Se][Se]S2 | 33.5 µM (inactive) | 16.5 µM (inactive) | 14.1 µM (inactive) | 22.8 µM (inactive) | 24.6 µM (inactive) | 14.9 µM (inactive) | 27.2 µM (inactive) | – | 3.52 µM (inactive) | 16.9 µM (inactive) | 17.8 µM (inactive) | 32.7 µM (inactive) | 32.8 µM (inactive) | 18.7 µM (inactive) | 20.7 µM (inactive) | 7.6 µM (inactive) | 14.5 µM (inactive) | 6.01 µM (inactive) | 16.8 µM (inactive) | 30.4 µM (inactive)
